The source of these data is ChEMBL document CHEMBL1201862, “PubChem BioAssay data set” (2004).

The source made the active and inactive calls.

One test has as its target Hexokinase (Trypanosoma brucei, UniProt Q38C41). The test can be described thus: Confirmation assay for inhibitors of Trypanosoma brucei hexokinase 1-Analogue-first series. [Related pubchem assays (depositor defined):AID1430, AID1632, AID2516, AID2560, AID2579, AID2600, AID449725, AID492951]. The format is functional.
For a further test, the target named is Coagulation factor XII (Homo sapiens, UniProt P00748). In words: activated coagulation factor XII inhibitor potency, concentration-effect curve, cell-free (AID 716). The format is functional.
Coagulation factor XII, sequence (P00748 20-372 limits assumed): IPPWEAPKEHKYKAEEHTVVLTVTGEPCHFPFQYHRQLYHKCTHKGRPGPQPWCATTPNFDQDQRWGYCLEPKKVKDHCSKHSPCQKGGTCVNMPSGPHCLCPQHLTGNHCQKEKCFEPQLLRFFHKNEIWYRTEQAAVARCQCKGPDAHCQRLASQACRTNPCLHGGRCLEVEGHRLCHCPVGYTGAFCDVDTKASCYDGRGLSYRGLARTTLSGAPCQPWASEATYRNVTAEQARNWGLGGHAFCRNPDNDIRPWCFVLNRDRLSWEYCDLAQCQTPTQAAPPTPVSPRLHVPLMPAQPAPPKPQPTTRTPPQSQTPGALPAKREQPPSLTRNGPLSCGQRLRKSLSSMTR
Coagulation factor XII, sequence (P00748 373-615 limits assumed): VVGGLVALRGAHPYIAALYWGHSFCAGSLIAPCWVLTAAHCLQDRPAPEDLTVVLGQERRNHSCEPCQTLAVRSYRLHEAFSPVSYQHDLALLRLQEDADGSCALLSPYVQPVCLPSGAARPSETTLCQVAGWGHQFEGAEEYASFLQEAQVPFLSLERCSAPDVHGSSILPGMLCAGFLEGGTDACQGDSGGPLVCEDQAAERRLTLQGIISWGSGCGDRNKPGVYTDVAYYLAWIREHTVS
Test [1] in a line: cells. The format is functional, cell-based.
The target of test [2] is T1, Trace amine-associated receptor 1 (Homo sapiens, UniProt Q96RJ0).
T1 sequence (Q96RJ0 whole entry): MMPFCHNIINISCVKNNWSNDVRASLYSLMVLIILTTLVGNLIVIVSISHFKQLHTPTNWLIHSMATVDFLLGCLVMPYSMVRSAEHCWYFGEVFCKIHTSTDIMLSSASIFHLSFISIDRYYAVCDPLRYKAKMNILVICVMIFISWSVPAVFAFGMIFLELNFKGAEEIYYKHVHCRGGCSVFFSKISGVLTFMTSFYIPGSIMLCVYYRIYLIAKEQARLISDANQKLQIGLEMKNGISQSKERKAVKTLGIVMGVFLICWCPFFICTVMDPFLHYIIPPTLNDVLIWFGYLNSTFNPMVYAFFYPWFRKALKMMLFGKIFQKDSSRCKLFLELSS
The test can be described thus: Fluorescence-based cell-based high throughput dose response assay to identify agonists of the human trace amine associated receptor 1 (TAAR1). It is filed as functional.

For test [3], the target named is T1, Trace amine-associated receptor 1. The test can be described thus: Counterscreen for agonists of the human trace amine associated receptor 1 (hTAAR1): Fluorescence-based cell-based high throughput dose response assay to identify hTAAR1 agonist that also desensitize TAAR1 receptor response. The format is functional. In general terms: A counterscreen serves to expose hits that act by an unwanted route or on another target.

A short description of test [4]: cells. The format is functional, cell-based. The source holds these as a separate data set.
Test [5] deals with T2, Tyrosine-protein phosphatase non-receptor type 7 (Homo sapiens, UniProt P35236).
T2 sequence (P35236 whole entry): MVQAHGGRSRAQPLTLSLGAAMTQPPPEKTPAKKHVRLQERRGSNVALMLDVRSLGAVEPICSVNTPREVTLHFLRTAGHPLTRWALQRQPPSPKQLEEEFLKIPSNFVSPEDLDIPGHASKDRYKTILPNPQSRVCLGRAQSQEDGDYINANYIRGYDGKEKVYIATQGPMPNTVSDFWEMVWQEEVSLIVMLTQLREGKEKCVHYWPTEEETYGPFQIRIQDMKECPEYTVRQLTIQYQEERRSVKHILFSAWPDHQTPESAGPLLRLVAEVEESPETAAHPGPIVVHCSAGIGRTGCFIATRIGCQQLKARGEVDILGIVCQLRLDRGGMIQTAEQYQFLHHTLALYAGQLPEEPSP
The format is functional.

In test [6] the target is Glyceraldehyde-3-phosphate dehydrogenase (Homo sapiens, UniProt P04406).
Glyceraldehyde-3-phosphate dehydrogenase, sequence (P04406 whole entry): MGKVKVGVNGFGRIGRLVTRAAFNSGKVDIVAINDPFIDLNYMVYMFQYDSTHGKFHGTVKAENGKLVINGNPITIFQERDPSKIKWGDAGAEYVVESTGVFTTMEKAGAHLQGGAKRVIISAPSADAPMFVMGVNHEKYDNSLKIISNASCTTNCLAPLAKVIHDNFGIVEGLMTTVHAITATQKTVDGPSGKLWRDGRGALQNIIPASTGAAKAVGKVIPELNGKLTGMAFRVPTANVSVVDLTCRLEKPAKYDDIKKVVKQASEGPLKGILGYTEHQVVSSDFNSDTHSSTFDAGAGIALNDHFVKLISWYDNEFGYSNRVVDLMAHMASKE
Test [7] deals with Heat shock cognate 71 kDa protein (Homo sapiens, UniProt P11142). The test can be described thus: In Vitro Hsc70 Dose Response Fluorescence Polarization Assay. [Related pubchem assays: 1072 ]. For orientation: Polarisation of emitted light reports the rotation of a fluorescent probe.
Heat shock cognate 71 kDa protein, sequence (P11142 whole entry): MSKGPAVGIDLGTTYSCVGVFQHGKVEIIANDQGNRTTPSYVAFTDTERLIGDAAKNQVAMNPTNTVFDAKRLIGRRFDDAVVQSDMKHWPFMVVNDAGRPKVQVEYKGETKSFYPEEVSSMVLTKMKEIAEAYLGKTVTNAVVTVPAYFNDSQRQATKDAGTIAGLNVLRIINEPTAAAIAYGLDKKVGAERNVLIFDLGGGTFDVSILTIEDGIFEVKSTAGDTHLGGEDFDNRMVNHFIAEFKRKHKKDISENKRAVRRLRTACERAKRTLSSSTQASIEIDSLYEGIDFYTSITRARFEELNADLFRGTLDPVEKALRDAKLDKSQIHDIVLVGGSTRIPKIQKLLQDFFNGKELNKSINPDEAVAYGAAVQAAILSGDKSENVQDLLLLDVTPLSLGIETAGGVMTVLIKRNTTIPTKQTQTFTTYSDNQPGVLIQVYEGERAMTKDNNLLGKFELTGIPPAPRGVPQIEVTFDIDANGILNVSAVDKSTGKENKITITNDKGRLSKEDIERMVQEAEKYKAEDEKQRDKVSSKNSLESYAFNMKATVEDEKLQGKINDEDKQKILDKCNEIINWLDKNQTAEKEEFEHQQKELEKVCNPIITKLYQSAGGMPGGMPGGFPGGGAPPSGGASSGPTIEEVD
In test [8] the target is Heat shock 70 kDa protein 1A (Homo sapiens, UniProt P0DMV8). In words: inhibition of Hsp70 binding activity – biochemical, fluorescence polarization, SAR follow-up (AID 1072).
Heat shock 70 kDa protein 1A, sequence (P0DMV8 whole entry): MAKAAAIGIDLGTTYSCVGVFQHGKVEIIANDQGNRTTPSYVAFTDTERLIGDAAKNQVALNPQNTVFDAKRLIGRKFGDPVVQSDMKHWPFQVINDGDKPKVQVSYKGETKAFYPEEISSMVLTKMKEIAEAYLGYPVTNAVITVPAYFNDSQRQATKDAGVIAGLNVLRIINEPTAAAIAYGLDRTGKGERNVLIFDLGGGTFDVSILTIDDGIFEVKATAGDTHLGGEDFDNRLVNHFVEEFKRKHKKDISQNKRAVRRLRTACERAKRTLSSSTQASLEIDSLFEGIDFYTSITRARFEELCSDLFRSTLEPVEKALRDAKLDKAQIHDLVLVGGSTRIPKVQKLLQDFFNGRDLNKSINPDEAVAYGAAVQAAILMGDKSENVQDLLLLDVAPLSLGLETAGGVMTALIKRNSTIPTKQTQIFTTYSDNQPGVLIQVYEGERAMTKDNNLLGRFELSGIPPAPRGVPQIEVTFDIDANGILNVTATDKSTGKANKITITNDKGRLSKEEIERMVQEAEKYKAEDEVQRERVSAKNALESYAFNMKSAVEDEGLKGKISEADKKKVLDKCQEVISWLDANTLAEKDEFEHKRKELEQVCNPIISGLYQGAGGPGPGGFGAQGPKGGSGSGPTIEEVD
Test [9] concerns the target T3, Dual specificity protein phosphatase 6 (Rattus norvegicus, UniProt Q64346).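 Also: in vitro confirmatory secondary MKP-3 assay designed to detect irreversible or slow-binding inhibitors; recombinant His-tagged rat MKP-3 acting on the substrate OMFP; inhibitor potency from reduced phosphatase rate.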
T3 sequence (Q64346 whole entry): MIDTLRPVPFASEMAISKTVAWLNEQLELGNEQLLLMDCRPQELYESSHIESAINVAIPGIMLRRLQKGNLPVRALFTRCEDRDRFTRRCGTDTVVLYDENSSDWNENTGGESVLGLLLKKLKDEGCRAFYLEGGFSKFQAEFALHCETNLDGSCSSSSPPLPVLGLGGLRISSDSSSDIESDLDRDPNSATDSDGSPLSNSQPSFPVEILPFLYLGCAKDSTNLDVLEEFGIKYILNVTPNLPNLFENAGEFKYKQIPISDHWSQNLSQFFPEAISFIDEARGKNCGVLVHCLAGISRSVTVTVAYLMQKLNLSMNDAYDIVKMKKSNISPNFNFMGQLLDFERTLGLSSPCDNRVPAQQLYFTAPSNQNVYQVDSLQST

Test [10] deals with Dual specificity protein phosphatase 3 (Homo sapiens, UniProt P51452). The test can be described thus: SAR VHR1 Fluorescent Assay for In Vitro dose response studies. [Related pubchem assays (depositor defined):AID1654, AID1661, AID1878, AID1992, AID2004, AID2070, AID2085]. The format is functional.
Dual specificity protein phosphatase 3, sequence (P51452 whole entry): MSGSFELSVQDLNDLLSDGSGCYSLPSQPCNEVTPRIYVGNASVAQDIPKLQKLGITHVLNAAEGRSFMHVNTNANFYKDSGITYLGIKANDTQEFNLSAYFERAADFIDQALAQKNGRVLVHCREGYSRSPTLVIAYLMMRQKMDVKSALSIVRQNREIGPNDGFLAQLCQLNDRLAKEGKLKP
For test [11], the target named is T2, Tyrosine-protein phosphatase non-receptor type 7. The test can be described thus: redox-active compounds inhibiting HePTP phosphatase – biochemical, fluorescence, mechanism study (AID 2068). It is filed as functional.
The target of test [12] is Intestinal-type alkaline phosphatase (Mus musculus, UniProt P24822). In words: PubChem AID 488875. It is filed as functional.
Intestinal-type alkaline phosphatase (Mus musculus, UniProt P24822), sequence (P24822 whole entry): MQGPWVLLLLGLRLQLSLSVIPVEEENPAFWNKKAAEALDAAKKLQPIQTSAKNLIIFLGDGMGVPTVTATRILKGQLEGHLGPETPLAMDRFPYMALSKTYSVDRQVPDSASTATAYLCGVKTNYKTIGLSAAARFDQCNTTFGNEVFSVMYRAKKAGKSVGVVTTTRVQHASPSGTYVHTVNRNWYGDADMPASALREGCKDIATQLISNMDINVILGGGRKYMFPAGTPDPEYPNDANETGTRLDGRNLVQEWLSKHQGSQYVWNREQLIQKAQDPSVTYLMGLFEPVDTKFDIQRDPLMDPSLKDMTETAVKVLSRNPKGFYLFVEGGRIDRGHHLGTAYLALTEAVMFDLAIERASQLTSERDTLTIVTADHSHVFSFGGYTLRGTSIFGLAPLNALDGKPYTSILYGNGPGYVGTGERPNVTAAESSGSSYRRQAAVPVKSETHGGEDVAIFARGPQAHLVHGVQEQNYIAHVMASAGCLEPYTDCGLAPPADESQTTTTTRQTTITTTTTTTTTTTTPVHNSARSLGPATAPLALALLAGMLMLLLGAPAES
Test [13] concerns the target T4, Intestinal-type alkaline phosphatase (Homo sapiens, UniProt P09923). The test can be described thus: human intestinal alkaline phosphatase activators, dose response, biochemical, luminescence, uHTS hits (AID 463120). It is filed as functional.
Test [14] deals with T4, Intestinal-type alkaline phosphatase. In words: activation of human intestinal alkaline phosphatase – biochemical, luminescent, uHTS hits, set 2, dose response (AID 488817).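 Also: potency of activators that raise enzyme activity.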 The format is functional.
The target of test [15] is T5, Alkaline phosphatase, tissue-nonspecific isozyme (Homo sapiens, UniProt P05186).
T5 sequence (P05186 whole entry): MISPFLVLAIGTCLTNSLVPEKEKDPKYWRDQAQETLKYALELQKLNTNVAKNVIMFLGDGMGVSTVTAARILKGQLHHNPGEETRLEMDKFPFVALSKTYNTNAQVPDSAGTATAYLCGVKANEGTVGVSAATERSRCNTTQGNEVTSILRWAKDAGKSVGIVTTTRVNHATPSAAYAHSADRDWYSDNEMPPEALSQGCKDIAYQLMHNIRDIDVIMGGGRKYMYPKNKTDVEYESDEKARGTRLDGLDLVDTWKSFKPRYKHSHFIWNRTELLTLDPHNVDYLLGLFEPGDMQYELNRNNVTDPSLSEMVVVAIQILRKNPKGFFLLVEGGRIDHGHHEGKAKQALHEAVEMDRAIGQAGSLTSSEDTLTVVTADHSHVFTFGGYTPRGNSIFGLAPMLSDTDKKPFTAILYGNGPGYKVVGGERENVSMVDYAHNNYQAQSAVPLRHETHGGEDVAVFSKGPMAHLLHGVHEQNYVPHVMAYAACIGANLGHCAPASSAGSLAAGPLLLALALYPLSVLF
The test can be described thus: activation of tissue-nonspecific alkaline phosphatase – biochemical, TNAP isozyme, human IAP uHTS hits, selectivity assay for human IAP activator project, dose response (AID 488886).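 Also: potency of compounds raising TNAP activity as a selectivity check on IAP activators.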 The format is functional.

For test [16], the target named is T6, RNA-binding protein pos-1 (Caenorhabditis elegans, UniProt G5EF15).
T6 sequence (G5EF15 whole entry): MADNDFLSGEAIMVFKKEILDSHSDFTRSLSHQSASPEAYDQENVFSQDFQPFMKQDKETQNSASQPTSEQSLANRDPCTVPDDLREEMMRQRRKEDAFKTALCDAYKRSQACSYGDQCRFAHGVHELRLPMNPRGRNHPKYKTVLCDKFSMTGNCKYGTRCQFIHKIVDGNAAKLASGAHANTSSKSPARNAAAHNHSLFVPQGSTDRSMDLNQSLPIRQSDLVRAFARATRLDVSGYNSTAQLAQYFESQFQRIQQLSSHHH
In words: disruptors of C. elegans POS-1 RNA interaction – biochemical, fluorescence polarization, dose response (AID 1964).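 Also: purified POS-1 fused to maltose binding protein made in E. coli; potency of compounds blocking POS-1 binding to fluorescent RNA.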

Test [17] addresses T7, Zinc finger protein mex-5 (Caenorhabditis elegans, UniProt Q9XUB2).
T7 sequence (Q9XUB2 whole entry): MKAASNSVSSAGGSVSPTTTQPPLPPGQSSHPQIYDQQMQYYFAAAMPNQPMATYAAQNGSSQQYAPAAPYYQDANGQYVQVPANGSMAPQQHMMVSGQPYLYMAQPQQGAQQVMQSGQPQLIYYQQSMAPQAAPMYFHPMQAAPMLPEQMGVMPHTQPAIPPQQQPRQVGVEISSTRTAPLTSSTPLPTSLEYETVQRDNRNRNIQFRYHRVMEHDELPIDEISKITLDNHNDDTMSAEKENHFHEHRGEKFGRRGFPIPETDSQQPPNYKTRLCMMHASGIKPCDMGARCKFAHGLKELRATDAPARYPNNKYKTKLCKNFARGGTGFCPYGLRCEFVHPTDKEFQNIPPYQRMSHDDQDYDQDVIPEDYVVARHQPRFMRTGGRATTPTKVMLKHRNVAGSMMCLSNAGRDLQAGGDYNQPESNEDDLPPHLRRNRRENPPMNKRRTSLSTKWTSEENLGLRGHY
The test can be described thus: potency of MEX-5 RNA-binding blockers – biochemical, C. elegans, fluorescence polarization, dose response (AID 1960).

For test [18], the target named is G-protein coupled receptor 55 (Homo sapiens, UniProt Q9Y2T6). The test can be described thus: selective activators of receptor GPR55 – imaging, U2OS cells, beta-arrestin-GFP redistribution, primary screen (AID 1961). It is filed as functional.
G-protein coupled receptor 55, sequence (Q9Y2T6 whole entry): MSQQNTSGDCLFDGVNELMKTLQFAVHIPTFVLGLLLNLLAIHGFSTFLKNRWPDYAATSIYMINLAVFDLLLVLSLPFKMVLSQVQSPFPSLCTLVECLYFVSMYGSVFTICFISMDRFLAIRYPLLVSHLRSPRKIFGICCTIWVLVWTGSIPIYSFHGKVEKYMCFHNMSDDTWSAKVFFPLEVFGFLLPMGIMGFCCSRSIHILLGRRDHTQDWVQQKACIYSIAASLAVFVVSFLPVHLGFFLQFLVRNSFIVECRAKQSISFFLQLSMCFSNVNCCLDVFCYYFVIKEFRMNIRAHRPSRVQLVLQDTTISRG
In test [19] the target is Neurotensin receptor type 1 (Homo sapiens, UniProt P30989). The format is functional.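 Also: Image-based confirmatory dose-response assay measuring agonist activity at NTR1; NTR1-expressing U2OS osteosarcoma cells imaged for beta-arrestin GFP spot formation; agonist potency where compounds increase beta-arrestin recruitment.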
Neurotensin receptor type 1, sequence (P30989 whole entry): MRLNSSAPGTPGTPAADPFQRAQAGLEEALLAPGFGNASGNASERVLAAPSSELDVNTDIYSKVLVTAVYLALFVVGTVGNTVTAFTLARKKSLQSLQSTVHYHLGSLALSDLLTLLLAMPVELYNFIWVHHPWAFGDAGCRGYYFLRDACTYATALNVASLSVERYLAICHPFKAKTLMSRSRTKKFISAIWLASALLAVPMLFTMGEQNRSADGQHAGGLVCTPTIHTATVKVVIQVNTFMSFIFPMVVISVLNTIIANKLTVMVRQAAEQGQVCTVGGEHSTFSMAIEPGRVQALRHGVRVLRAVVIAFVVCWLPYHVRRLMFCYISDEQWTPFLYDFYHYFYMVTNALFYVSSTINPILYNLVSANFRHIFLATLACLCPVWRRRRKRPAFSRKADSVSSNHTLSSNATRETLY
The target of test [20] is T8, Endoribonuclease toxin MazF (Escherichia coli K-12, UniProt P0AE70).
T8 sequence (P0AE70 whole entry): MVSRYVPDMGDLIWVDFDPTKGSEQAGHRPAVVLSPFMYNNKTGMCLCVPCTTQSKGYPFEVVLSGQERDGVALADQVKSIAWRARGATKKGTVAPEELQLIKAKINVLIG
In words: activation of MazEF endoribonuclease cleavage – biochemical, fluorescence, single-stranded RNA substrate, uHTS hits, dose response (AID 588481). The format is functional.

Test [21] addresses T8, Endoribonuclease toxin MazF. In words: substrate-only fluorescence increase artefacts – biochemical, single-stranded RNase substrate, counter-screen for MazEF activator project, dose response (AID 588502). It is filed as functional.

T4 sequence (P09923 whole entry): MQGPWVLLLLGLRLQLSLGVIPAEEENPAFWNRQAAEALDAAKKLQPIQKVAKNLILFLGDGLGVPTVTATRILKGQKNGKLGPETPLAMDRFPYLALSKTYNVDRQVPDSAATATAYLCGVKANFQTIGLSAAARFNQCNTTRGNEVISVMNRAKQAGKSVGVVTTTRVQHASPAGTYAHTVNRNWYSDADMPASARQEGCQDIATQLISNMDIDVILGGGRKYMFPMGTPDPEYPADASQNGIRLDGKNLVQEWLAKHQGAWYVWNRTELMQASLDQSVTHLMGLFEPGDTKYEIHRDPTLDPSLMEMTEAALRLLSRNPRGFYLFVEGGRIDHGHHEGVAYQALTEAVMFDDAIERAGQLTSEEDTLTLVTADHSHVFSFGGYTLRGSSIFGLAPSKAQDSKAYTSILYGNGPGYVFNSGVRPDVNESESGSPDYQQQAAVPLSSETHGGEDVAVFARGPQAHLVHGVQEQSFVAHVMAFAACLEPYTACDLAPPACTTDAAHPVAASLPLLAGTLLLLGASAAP
Hexokinase, sequence (Q38C41 whole entry): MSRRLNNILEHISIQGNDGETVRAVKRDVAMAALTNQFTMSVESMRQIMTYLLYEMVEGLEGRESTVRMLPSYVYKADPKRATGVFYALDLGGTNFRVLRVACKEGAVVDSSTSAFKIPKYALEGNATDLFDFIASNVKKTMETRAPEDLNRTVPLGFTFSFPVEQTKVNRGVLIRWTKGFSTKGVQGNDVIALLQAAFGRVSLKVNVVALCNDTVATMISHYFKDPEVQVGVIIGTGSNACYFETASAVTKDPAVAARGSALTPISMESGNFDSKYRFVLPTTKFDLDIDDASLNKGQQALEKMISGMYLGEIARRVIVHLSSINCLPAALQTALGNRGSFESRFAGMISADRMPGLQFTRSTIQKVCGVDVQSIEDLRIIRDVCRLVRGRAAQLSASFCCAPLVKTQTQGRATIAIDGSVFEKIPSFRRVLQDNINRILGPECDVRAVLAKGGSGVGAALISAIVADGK

For `CCc1ccc(C(=O)Nc2cc(Cl)ccc2C(=O)O)cc1`, the IC50 (in general, the midpoint of a concentration-inhibition curve) at Hexokinase is 3.04 µM (active).
As to `O=C(O)C1CCCCC1C(=O)NCCc1ccccc1` (stereo not drawn), the IC50 was > 50 µM (inactive) on Coagulation factor XII, > 29.9 µM (inactive) in “cells [1]” and 8.04 µM (active) in test [3]. For the same compound, the EC50 (as a rule, the concentration needed to bring the measured effect to its halfway point) in test [2] is 1.42 µM (active); in “cells [4]”, > 29.9 µM (inactive).
Turning to `O=C1c2ccccc2CC1Sc1nnc(-c2ccco2)c(-c2ccco2)n1` (stereo not drawn), the IC50 is 8.11 µM (active) in test [5]; > 100 µM (not active) in [6]; > 100 µM (not active) in test [7]; > 100 µM (not active) in test [8]; 42.1 µM (active) in test [9]; 27.9 µM (active) in [10]. The IC50 in test [11] was 1.12 µM (active).
As for `COc1cc(CN2CCC(n3nccc3NC(=O)CCCc3ccccc3)CC2)ccc1F`, the EC50 in test [12] is 58.2 µM (active); in test [13] it was 68.7 µM (active); in test [14], 79.7 µM (active); in [15], 66.1 µM (active).
Take `COc1cc2c3nnc(-c4ccccc4)c-3cn(Cc3ccccc3F)c2cc1OC`: the EC50 in test [16] was > 300 µM (not active); in test [17] it was > 300 µM (inconclusive); in test [18] it was 0.807 µM (active); in [19] it was 5.8 µM (active); in test [20], > 99 µM (inactive); in test [21], 34.6 µM (inactive).
